Results as given in patent US20220346377A1, “NOVEL COMPOSITIONS” (DSM IP ASSETS B.V., priority 2019, published 2022).

How the values were obtained:
Type in all cases: cell-based
Staphylococcus aureus = experiment: Antimicrobial efficacy in analogy to challenge test (NF EN ISO11930), Staphylococcus aureus
Protocol: (§1) The antimicrobial efficacy was assessed in analogy to the regulatory challenge test method (NF EN ISO11930). Thus, mixtures of the respective active(s) with physiological serum with 0.85 wt.-% NaCl in the concentrations as outlined below are prepared under sterile conditions. Controls were also prepared under sterile conditions. The control as well as the mixtures were then deposed in 96-deep well plates (1.6 ml/well). The wells were contaminated with the respective bacterial or the fungal strains at 2.5*10^5 to 5.6*10^5 cfu/ml for the bacteria and 1*10^4 to 2.5*10^4 cfu/ml for the fungi to obtain the initial contamination as outlined below. After the contamination, each well was thoroughly mixed to ensure a homogeneous distribution of microbes. Then each plate was incubated at 22° C. for 24 h. The counting of the (remaining) population is carried out 24 h after contamination. Then, the average log reduction is calculated [−log 10{(value inoculum)/(value sample)}] which is represented in tables 1-5.

Candida albicans = experiment: Antimicrobial efficacy in analogy to challenge test (NF EN ISO11930), Candida albicans
Protocol: as §1, with “The wells were contaminated with the respective bacterial or the fungal strains at 2.5*10^5 to 5.6*10^5 cfu/ml for the bacteria and 1*10^4 to 2.5*10^4 cfu/ml for the fungi to obtain the initial contamination as outlined below.” left out

Aspergillus brasiliensis = experiment: Antimicrobial efficacy in analogy to challenge test (NF EN ISO11930), Aspergillus brasiliensis; details: 0.3 wt.-% DBO
Protocol: as §1

Escherichia coli = experiment: Antimicrobial efficacy in analogy to challenge test (NF EN ISO11930), Escherichia coli; details: 0.2 wt.-% Sodium Benzoate
Protocol: as §1

c1ccc2oc(-c3ccc(-c4nc5ccccc5o4)cc3)nc2c1 [DBO, 1,4-di(benzoxazol-2′-yl)benzene]
synergistic effect on antimicrobial activity (Staphylococcus aureus; DBO with p-Hydroxyacetophenone, conclusion from Table 3): synergistically enhances the antimicrobial activity of p-Hydroxyacetophenone | Log reduction (Candida albicans; 0.3 wt.-% DBO, 24 h after contamination): −0.51 | colony count 24 h (Candida albicans; 0.3 wt.-% DBO, inoculum 32000 cfu/ml, 22° C., 24 h, physiological serum 0.85 wt.-% NaCl): 10000 cfu/ml | Log reduction (Aspergillus brasiliensis; 24 h after contamination): −2.05 | colony count 24 h (Aspergillus brasiliensis; inoculum 45000 cfu/ml, 22° C., 24 h): 400 cfu/ml

CC(=O)c1ccc(O)cc1 [HAP, p-Hydroxyacetophenone]
colony count 24 h (Staphylococcus aureus; 0.3 wt.-% HAP, inoculum 550000 cfu/ml, 24 h): 70000 cfu/ml

OCCCO [PDO, 1,3-propanediol]
Log reduction (Candida albicans; 1.0 wt.-% PDO, 24 h): −0.24 | colony count 24 h (Candida albicans; 1.0 wt.-% PDO, inoculum 70000 cfu/ml, 24 h): 40000 cfu/ml

O=C([O-])c1ccccc1.[Na+] [Sodium Benzoate, sodium benzoate]
colony count 24 h (Escherichia coli; inoculum 400000 cfu/ml): 1000000 cfu/ml | Log reduction (Escherichia coli; 24 h): +0.40
